Data published in US10072017B2, “Compounds and methods for the treatment of cystic fibrosis” (Flatley Discovery Lab, LLC, priority 2015, dated 2018).

Molecular target: T1, CFTR (Homo sapiens, UniProt P13569, DEL508-508)
T1 construct: Primary CF airway epithelial cells were obtained from the UNC Cystic Fibrosis Tissue Procurement and Cell Culture Core; host or cells: primary CF airway epithelial cells
Assay: Equivalent current assay in Primary CF airway epithelial cells (NAUC)
Assay type: cell-based
Details: 24 h, normalized to VX809 (3 μM) positive control; for Nauc @ 3 μM: 3 μM test compound; for Nauc @ 10 μM: 10 μM test compound
Summary of the method: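 Primary CF airway epithelia differentiated ≥4 weeks at air-liquid interface, treated basolaterally 24 h at 37 °C with test compounds in combination with VX809, 0.1% DMSO vehicle. Equivalent current recorded after 5 μM benzamil, 10 μM forskolin plus 1 μM VX770, then CFTR-172/bumetanide 20 μM; vehicle-subtracted AUC normalized to 3 μM VX809 (NAUC), median of n≥4, sigmoid fit for EC50.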

T1 sequence (P13569 with tags, fused parts or gaps DEL508-508): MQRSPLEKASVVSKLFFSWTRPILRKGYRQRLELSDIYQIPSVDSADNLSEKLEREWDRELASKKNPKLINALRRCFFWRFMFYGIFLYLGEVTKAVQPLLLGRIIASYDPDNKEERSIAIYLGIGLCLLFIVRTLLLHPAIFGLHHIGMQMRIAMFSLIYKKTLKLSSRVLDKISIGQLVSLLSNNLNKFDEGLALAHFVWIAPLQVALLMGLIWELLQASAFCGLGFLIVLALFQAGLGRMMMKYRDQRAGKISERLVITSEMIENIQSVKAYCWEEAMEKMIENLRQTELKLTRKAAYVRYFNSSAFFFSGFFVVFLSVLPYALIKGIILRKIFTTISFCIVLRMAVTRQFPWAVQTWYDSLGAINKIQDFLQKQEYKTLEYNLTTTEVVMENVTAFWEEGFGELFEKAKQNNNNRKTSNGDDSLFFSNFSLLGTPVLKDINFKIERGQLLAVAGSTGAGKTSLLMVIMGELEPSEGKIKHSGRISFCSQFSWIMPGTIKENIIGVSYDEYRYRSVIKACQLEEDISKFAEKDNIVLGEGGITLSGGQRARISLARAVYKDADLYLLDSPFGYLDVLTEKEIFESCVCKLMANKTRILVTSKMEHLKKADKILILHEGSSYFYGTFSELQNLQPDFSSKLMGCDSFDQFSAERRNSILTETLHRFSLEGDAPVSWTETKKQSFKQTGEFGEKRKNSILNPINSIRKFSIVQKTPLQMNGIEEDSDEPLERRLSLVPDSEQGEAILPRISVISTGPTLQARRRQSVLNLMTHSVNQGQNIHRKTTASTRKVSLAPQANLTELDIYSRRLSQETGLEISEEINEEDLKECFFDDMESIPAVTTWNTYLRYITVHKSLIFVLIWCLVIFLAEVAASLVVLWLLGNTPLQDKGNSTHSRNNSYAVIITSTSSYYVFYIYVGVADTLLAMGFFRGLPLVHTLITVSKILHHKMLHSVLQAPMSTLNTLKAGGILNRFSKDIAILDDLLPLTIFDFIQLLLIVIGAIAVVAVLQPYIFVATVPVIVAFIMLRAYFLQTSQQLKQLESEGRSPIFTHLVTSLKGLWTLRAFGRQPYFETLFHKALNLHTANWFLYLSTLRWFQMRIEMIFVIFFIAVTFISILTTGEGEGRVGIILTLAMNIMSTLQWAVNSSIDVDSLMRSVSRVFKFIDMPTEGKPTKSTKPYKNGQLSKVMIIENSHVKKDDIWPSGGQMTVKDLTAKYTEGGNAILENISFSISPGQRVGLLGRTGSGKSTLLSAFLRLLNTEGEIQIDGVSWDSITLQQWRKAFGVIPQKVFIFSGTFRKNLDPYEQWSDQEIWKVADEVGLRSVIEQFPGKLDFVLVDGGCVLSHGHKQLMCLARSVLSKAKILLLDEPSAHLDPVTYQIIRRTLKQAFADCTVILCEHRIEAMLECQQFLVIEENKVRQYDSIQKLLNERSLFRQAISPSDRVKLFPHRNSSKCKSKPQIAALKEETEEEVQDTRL

| SMILES | Nauc @ 3 μM | Nauc @ 10 μM |
| --- | --- | --- |
| CCC(C)C1NC2(C(=O)Nc3c(Cl)cc(Cl)cc32)C2C(=O)N(c3cc(Cl)cc(OC)c3)C(=O)C12 (stereo not shown) [Example 7, 3′-(Sec-butyl)-5,7-dichloro-5′-(3-chloro-5-methoxyphenyl)-2′,3′,3a′,6a′-tetrahydro-4′H-spiro[indoline-3,1′-pyrrolo[3,4-c]pyrrole]-2,4′,6′(5′H)-trione] | ++ (NAUC “++” refers to an observed NAUC 170-140% of positive control) | ++ (NAUC “++” refers to an observed NAUC 170-140% of positive control) |
| Cc1ccc(N2C(=O)C3C4CCCN4C4(C(=O)Nc5c(C)cccc54)C3C2=O)c(Cl)c1 (stereo not shown) [Example 128] | ++ (NAUC “++” refers to an observed NAUC 170-140% of positive control) | + (NAUC “+” refers to an observed NAUC <140% of positive control) |
| COc1c(Cl)cc(N2C(=O)C3C4CCCN4C4(C(=O)Nc5c(Cl)cc(Cl)cc54)C3C2=O)cc1Cl (single isomer, unassigned) [Example 112] | +++ (NAUC “+++” refers to an observed NAUC >170% of positive control) | +++ (NAUC “+++” refers to an observed NAUC >170% of positive control) |
| COc1c(Cl)cc(N2C(=O)C3C4CC(F)(F)CN4C4(C(=O)Nc5c(Cl)cc(Cl)cc54)C3C2=O)cc1Cl (single isomer, unassigned) [Example 221] | +++ (NAUC “+++” refers to an observed NAUC >170% of positive control) | +++ (NAUC “+++” refers to an observed NAUC >170% of positive control) |
| CC(C)C1NC2(C(=O)Nc3c(Cl)cc(Cl)cc32)C2C(=O)N(c3cc(Cl)cc(Cl)c3)C(=O)C12 (stereo not shown) [Example 235] | +++ (NAUC “+++” refers to an observed NAUC >170% of positive control) | +++ (NAUC “+++” refers to an observed NAUC >170% of positive control) |
| O=C1C2C3CCCN3C3(C(=O)Nc4c(Cl)cc(Cl)cc43)C2C(=O)N1c1cc(Cl)cc(Cl)n1 (stereo not shown) [Example 52] | ++ (NAUC “++” refers to an observed NAUC 170-140% of positive control) | +++ (NAUC “+++” refers to an observed NAUC >170% of positive control) |
| O=C1C2C3C[C@H](O)CN3C3(C(=O)Nc4ccc(C(F)(F)F)cc43)C2C(=O)N1c1cc(Cl)cc(Cl)c1 (single isomer, unassigned) [Example 61] | +++ (NAUC “+++” refers to an observed NAUC >170% of positive control) | +++ (NAUC “+++” refers to an observed NAUC >170% of positive control) |
| O=C1C2C3CC4(CC4)CN3C3(C(=O)Nc4c(Cl)cc(Cl)cc43)C2C(=O)N1c1cc(Cl)cc(Cl)n1 (stereo not shown) [Example 184] | +++ (NAUC “+++” refers to an observed NAUC >170% of positive control) | +++ (NAUC “+++” refers to an observed NAUC >170% of positive control) |
| O=C1C2C(C3CCCCC3)NC3(C(=O)Nc4c(Cl)cc(Cl)cc43)C2C(=O)N1c1cc(Cl)cc(Cl)c1 (stereo not shown) [Example 208] | ++ (NAUC “++” refers to an observed NAUC 170-140% of positive control) | + (NAUC “+” refers to an observed NAUC <140% of positive control) |
| O=C1C2C3C[C@H](O)CN3C3(C(=O)Nc4c(Cl)cc(Cl)cc43)C2C(=O)N1c1cc(C(F)(F)F)cc(C(F)(F)F)c1 (stereo partly shown) [Example 43] | ++ (NAUC “++” refers to an observed NAUC 170-140% of positive control) | +++ (NAUC “+++” refers to an observed NAUC >170% of positive control) |
| CC1(C)CC2C3C(=O)N(c4cc(Cl)cc(Cl)n4)C(=O)C3C3(C(=O)Nc4c(Cl)cc(Cl)cc43)N2C1 (stereo not shown) [Example 175] | +++ (NAUC “+++” refers to an observed NAUC >170% of positive control) | +++ (NAUC “+++” refers to an observed NAUC >170% of positive control) |
| O=C(O)CC1NC2(C(=O)Nc3c(Cl)cc(Cl)cc32)C2C(=O)N(c3cc(Cl)cc(Cl)c3)C(=O)C12 (stereo not shown) [Example 157] | +++ (NAUC “+++” refers to an observed NAUC >170% of positive control) | + (NAUC “+” refers to an observed NAUC <140% of positive control) |
| COc1cc(Cl)cc(N2C(=O)C3C4CC(=C(F)F)CN4C4(C(=O)Nc5c(Cl)cc(Cl)cc54)C3C2=O)c1 (stereo not shown) [Example 117] | +++ (NAUC “+++” refers to an observed NAUC >170% of positive control) | +++ (NAUC “+++” refers to an observed NAUC >170% of positive control) |
| COc1cc(Cl)cc(N2C(=O)C3C4C[C@H](O)CN4C4(C(=O)Nc5c(Cl)cc(Cl)cc54)C3C2=O)c1 (stereo partly shown) [Example 74] | +++ (NAUC “+++” refers to an observed NAUC >170% of positive control) | +++ (NAUC “+++” refers to an observed NAUC >170% of positive control) |
| COc1cc(Cl)cc(N2C(=O)C3C4CCCN4C4(C(=O)Nc5c(Cl)cc(Cl)cc54)C3C2=O)c1 (single isomer, unassigned) [Example 106] | +++ (NAUC “+++” refers to an observed NAUC >170% of positive control) | +++ (NAUC “+++” refers to an observed NAUC >170% of positive control) |
| O=C1C2C3CC(C(F)F)CN3C3(C(=O)Nc4c(Cl)cc(Cl)cc43)C2C(=O)N1c1cc(Cl)cc(Cl)c1 (stereo not shown) [Example 136] | +++ (NAUC “+++” refers to an observed NAUC >170% of positive control) | +++ (NAUC “+++” refers to an observed NAUC >170% of positive control) |
| NC(=O)c1cccc(N2C(=O)C3C4CCCN4C4(C(=O)Nc5c(Cl)cc(Cl)cc54)C3C2=O)c1 (stereo not shown) [Example 19] | + (NAUC “+” refers to an observed NAUC <140% of positive control) | ++ (NAUC “++” refers to an observed NAUC 170-140% of positive control) |
| O=C1C2C3CC(C(F)F)CN3C3(C(=O)Nc4c(Cl)cc(Cl)cc43)C2C(=O)N1c1cc(Cl)cc(Cl)c1 (stereo not shown) [Example 137] | +++ (NAUC “+++” refers to an observed NAUC >170% of positive control) | +++ (NAUC “+++” refers to an observed NAUC >170% of positive control) |
| COC(=O)c1cccc(N2C(=O)C3C4CCCN4C4(C(=O)Nc5c(Cl)cc(Cl)cc54)C3C2=O)c1 (stereo not shown) [Example 66] | ++ (NAUC “++” refers to an observed NAUC 170-140% of positive control) | ++ (NAUC “++” refers to an observed NAUC 170-140% of positive control) |
| O=C1C2C3C[C@H](O)CN3C3(C(=O)Nc4c(Br)cc(Br)cc43)C2C(=O)N1c1cc(Cl)cc(Cl)c1 (single isomer, unassigned) [Example 51] | +++ (NAUC “+++” refers to an observed NAUC >170% of positive control) | ++ (NAUC “++” refers to an observed NAUC 170-140% of positive control) |
| CC(C)CC1NC2(C(=O)Nc3c(Cl)cc(Cl)cc32)C2C(=O)N(c3cc(Cl)cc(Cl)c3)C(=O)C12 (stereo not shown) [Example 164] | ++ (NAUC “++” refers to an observed NAUC 170-140% of positive control) | +++ (NAUC “+++” refers to an observed NAUC >170% of positive control) |
| COc1cc(Cl)cc(N2C(=O)C3C4C[C@H](Cl)CN4C4(C(=O)Nc5c(Cl)cc(Cl)cc54)C3C2=O)c1 (stereo partly shown) [Example 76] | +++ (NAUC “+++” refers to an observed NAUC >170% of positive control) | +++ (NAUC “+++” refers to an observed NAUC >170% of positive control) |
| CC(=O)Oc1c(Cl)cc(Cl)cc1N1C(=O)C2C3C[C@H](O)CN3C3(C(=O)Nc4c(Cl)cc(Cl)cc43)C2C1=O (stereo partly shown) [Example 91] | + (NAUC “+” refers to an observed NAUC <140% of positive control) | +++ (NAUC “+++” refers to an observed NAUC >170% of positive control) |
| O=C1C2C3CCCN3C3(C(=O)Nc4c(Cl)cc(Cl)cc43)C2C(=O)N1c1cccc(F)n1 (stereo not shown) [Example 227] | + (NAUC “+” refers to an observed NAUC <140% of positive control) | ++ (NAUC “++” refers to an observed NAUC 170-140% of positive control) |
| O=C1C2C3CC(=C(F)F)CN3C3(C(=O)Nc4c(Cl)cc(Cl)cc43)C2C(=O)N1c1cc(Cl)cc(Cl)c1 (stereo not shown) [Example 100] | +++ (NAUC “+++” refers to an observed NAUC >170% of positive control) | +++ (NAUC “+++” refers to an observed NAUC >170% of positive control) |
| O=C1C2C3CCCN3C3(C(=O)Nc4c(Cl)cc(Cl)cc43)C2C(=O)N1c1ncc(Cl)s1 (stereo not shown) [Example 229] | + (NAUC “+” refers to an observed NAUC <140% of positive control) | ++ (NAUC “++” refers to an observed NAUC 170-140% of positive control) |
| O=C1C2C3CCCN3C3(C(=O)Nc4ccc(C(F)(F)F)cc43)C2C(=O)N1c1cc(Cl)cc(Cl)n1 (stereo not shown) [Example 102] | + (NAUC “+” refers to an observed NAUC <140% of positive control) | ++ (NAUC “++” refers to an observed NAUC 170-140% of positive control) |
| C[C@]1(O)CC2C3C(=O)N(c4nnn[nH]4)C(=O)C3C3(C(=O)Nc4c(Cl)cc(Cl)cc43)N2C1 (stereo partly drawn) [Example 8, (7′S)-5,7-Dichloro-7′-hydroxy-7′-methyl-2′-(1H-tetrazol-5-yl)-3a′,6′,7′,8′,8a′,8b′-hexahydro-1′H-spiro[indoline-3,4′-pyrrolo[3,4-a]pyrrolizine]-1′,2,3′(2′H)-trione] | +++ (NAUC “+++” refers to an observed NAUC >170% of positive control) | + (NAUC “+” refers to an observed NAUC <140% of positive control) |
| O=C1C2C3C[C@H](F)CN3C3(C(=O)Nc4c(Cl)cc(Cl)cc43)C2C(=O)N1c1cc(Cl)cc(Cl)c1O (stereo partly shown) [Example 95] | ++ (NAUC “++” refers to an observed NAUC 170-140% of positive control) | + (NAUC “+” refers to an observed NAUC <140% of positive control) |
